# According to ChEMBL document CHEMBL5143612, “Antibacterial activity evaluation of vinyl sulfones against global predominant methicillin-resistant Staphylococcus aureus USA300” (Bioorg Med Chem Lett, 2022):
# Calls of active or inactive are those of the source. The calls are words filed in the database; no cut-off is given here.
# What was measured:
# Assay type in all cases: functional
# Staphylococcus aureus [1] = test: Antibacterial activity against methicillin-susceptible Staphylococcus aureus ATCC 25923 assessed as inhibition of bacterial growth by measuring zone of inhibition at 30 ug incubated for 18 to 20 hrs by CLSI based disk diffusion analysis; settings: time 18-20 hrs, read-out: DIZ
# Pseudomonas aeruginosa [2] = test: Antibacterial activity against Pseudomonas aeruginosa assessed as inhibition of bacterial growth by measuring zone of inhibition at 30 ug incubated for 18 to 20 hrs by CLSI based disk diffusion analysis; settings: time 18-20 hrs, read-out: DIZ
# Staphylococcus aureus [3] = test: Antibacterial activity against community-associated methicillin-resistant Staphylococcus aureus USA300 SF8300 assessed as inhibition of bacterial growth by measuring zone of inhibition at 30 ug incubated for 18 to 20 hrs by CLSI based disk diffusion analysis; settings: time 18-20 hrs, read-out: DIZ
# Staphylococcus aureus [4] = test: Bactericidal activity against community-associated methicillin-resistant Staphylococcus aureus USA300 SF8300 assessed as inhibition of bacterial growth incubated for 18 to 20 hrs by CLSI based microdilution susceptibility analysis; settings: time 18-20 hrs
# Staphylococcus aureus [5] = test: Bactericidal activity against methicillin-susceptible Staphylococcus aureus ATCC 29213 assessed as inhibition of bacterial growth incubated for 18 to 20 hrs by CLSI based microdilution susceptibility analysis; settings: time 18-20 hrs
# Pseudomonas aeruginosa [6] = test: Bactericidal activity against Pseudomonas aeruginosa assessed as inhibition of bacterial growth incubated for 18 to 20 hrs by CLSI based microdilution susceptibility analysis; settings: time 18-20 hrs
# Staphylococcus aureus [7] = test: Antibacterial activity against community-associated methicillin-resistant Staphylococcus aureus USA300 SF8300 assessed as inhibition of bacterial growth incubated for 18 to 20 hrs by CLSI based microdilution susceptibility analysis; settings: time 18-20 hrs
# Staphylococcus aureus [8] = test: Antibacterial activity against methicillin-susceptible Staphylococcus aureus ATCC 29213 assessed as inhibition of bacterial growth incubated for 18 to 20 hrs by CLSI based microdilution susceptibility analysis; settings: time 18-20 hrs
# Staphylococcus aureus [9] = test: Inhibition of methicillin-susceptible Staphylococcus aureus ATCC 29213 bacterial cell adhesion to fibronectin at 0.1 mg/ml followed by compound addition on fibronectin precoated plate measured after 2 hrs by crystal violet dye based analysis
# Pseudomonas aeruginosa [10] = test: Antibacterial activity against Pseudomonas aeruginosa assessed as inhibition of bacterial growth incubated for 18 to 20 hrs by CLSI based microdilution susceptibility analysis; settings: time 18-20 hrs
Compound,zone of inhibition at 30 µg/disc (Staphylococcus aureus [1]) [mm],zone of inhibition at 30 µg/disc (Pseudomonas aeruginosa [2]) [mm],zone of inhibition at 30 µg/disc (Staphylococcus aureus [3]) [mm],MBC (Staphylococcus aureus [4]) [µg/mL],MBC (Staphylococcus aureus [5]) [µg/mL],MBC (Pseudomonas aeruginosa [6]) [µg/mL],MIC (Staphylococcus aureus [7]) [µg/mL],MIC (Staphylococcus aureus [8]) [µg/mL],inhibition (Staphylococcus aureus [9]),MIC (Pseudomonas aeruginosa [10]) [µg/mL]
Cc1ccc(S(=O)(=O)/C=C/Cc2ccccc2)cc1,6,6,6,–,–,–,–,–,–,–
N#C/C=C/S(=O)(=O)c1ccc(Br)cc1,24.7,12.9,25.7,60,15,> 120,15,7.5,Active,120
N#C/C=C\S(=O)(=O)c1ccc(Br)cc1,22.6,13.8,23.4,120,30,> 120,60,30,Active,60
C/C(C#N)=C\S(=O)(=O)c1ccc(C)cc1,6,6,11.3,120,–,–,30,–,–,–
C/C(=C/C#N)S(=O)(=O)c1ccc(C)cc1,23.6,6,23.6,15,7.5,–,7.5,7.5,–,–
CCCCOC(=O)/C=C/S(=O)(=O)c1ccc(C)cc1,13.9,6,15.1,> 120,120,–,60,7.5,–,–
CCS(=O)(=O)c1ccc(C)cc1,6,6,6,–,–,–,–,–,–,–
N#C/C=C/S(=O)(=O)c1ccc([N+](=O)[O-])cc1,21.1,13.1,6,–,60,120,–,30,Active,120
Cc1ccc(S(=O)(=O)/C=C/C(=O)OC(C)(C)C)cc1,14.9,6,16.7,60,120,–,30,7.5,–,–
N#C/C=C/S(=O)(=O)c1ccc(Cl)cc1,22.8,13.9,25.5,60,15,120,7.5,1.88,Active,60
N#C/C=C\S(=O)(=O)c1ccc(Cl)cc1,20,16.3,6,–,60,60,–,7.5,Active,60
Cc1ccc(S(=O)(=O)/C=C/c2ccc(Cl)cc2)cc1,6,6,6,–,–,–,–,–,–,–
N#C/C=C\S(=O)(=O)c1ccccc1,22.3,14.1,6,–,30,120,–,15,Active,60
Cc1ccc(S(=O)(=O)/C=C/C(=O)O)cc1,9.94,6,6,–,> 120,–,–,> 120,–,–
COC(=O)/C(C)=C/S(=O)(=O)c1ccc(C)cc1,6,6,6,–,–,–,–,–,–,–
N#C/C=C/S(=O)(=O)c1ccccc1,22.6,14.1,25.2,60,30,60,7.5,1.88,Active,60
Cc1ccc(S(=O)(=O)/C=C/C(N)=O)cc1,22,6,6,–,60,–,–,60,–,–
Cc1ccc(/C=C/S(=O)(=O)c2ccc(C)cc2)cc1,6,6,6,–,–,–,–,–,–,–
Cc1ccc(S(=O)(=O)C/C=C\Oc2ccccc2)cc1,6,6,6,–,–,–,–,–,–,–
COc1ccc(S(=O)(=O)/C=C/C#N)cc1,26.9,13.3,25.9,30,30,> 120,3.75,1.88,Active,> 120
C/C(=C\C#N)S(=O)(=O)c1ccc(C)cc1,16.2,6,6,–,60,–,–,60,–,–
COC(=O)/C=C/S(=O)(=O)c1ccc(C)cc1,20.6,10.6,18.7,120,120,> 120,15,7.5,–,> 120
O=S(=O)(/C=C/CCCBr)c1ccc(Br)cc1,6,6,6,–,–,–,–,–,–,–
Cc1ccc(S(=O)(=O)/C=C/CCCBr)cc1,6,6,6,–,–,–,–,–,–,–
Cc1ccc(S(=O)(=O)/C=C/COCc2ccccc2)cc1,8.3,6,6,–,> 120,–,–,> 120,–,–
COc1ccc(S(=O)(=O)/C=C\C#N)cc1,24.5,14.2,24.7,60,60,120,15,3.75,Active,120
O=[N+]([O-])c1ccc(S(=O)(=O)/C=C/CCCBr)cc1,6,6,6,–,–,–,–,–,–,–
